This passage reports remaining activity results from US11912699B2, “Tau-protein targeting compounds and associated” (Arvinas Operations, Inc., priority 2019, dated 2024).

The target of the test is T1, Tau P301L (Homo sapiens, UniProt P10636, P618L).
T1 construct: expressed in transfected cells
Description: In vitro tau degradation assay in CHOK1 Tau P301L cells (sarkosyl insoluble tau, WES). Conditions: CHO-K1, relative to DMSO doxycycline control, read-out: Tau Protein Degradation effect at 1 μM. The class given is cell-based. The method in brief:
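Sarkosyl-insoluble pellet tau, measured by WES capillary immunoassay (Tau1 antibody), was scored against DMSO doxycycline control as ≤50% or >50% remaining. Cells were CHOK1 clone D1 expressing Tau P301L under doxycycline (1 μg/ml), given 1 μM compound for 48 h with doxycycline withdrawn during the last 24 h.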

The mark [1] stands for this setting: remaining tau protein in sarkosyl insoluble pellet, CHOK1 Tau P301L cells treated 48 hours with test compound at 1 μM, doxycycline removed for the last 24 hours.
[2] abbreviates: CHOK1 Tau P301L cells, remaining tau in sarkosyl insoluble pellet, 48 hours with test compound at 1 μM, doxycycline removed for last 24 hours.

Structures are written as SMILES. Like-named read-outs stand apart in the source and are kept apart here.

T1 sequence (P10636 1-441 isoform P10636-8 P301L): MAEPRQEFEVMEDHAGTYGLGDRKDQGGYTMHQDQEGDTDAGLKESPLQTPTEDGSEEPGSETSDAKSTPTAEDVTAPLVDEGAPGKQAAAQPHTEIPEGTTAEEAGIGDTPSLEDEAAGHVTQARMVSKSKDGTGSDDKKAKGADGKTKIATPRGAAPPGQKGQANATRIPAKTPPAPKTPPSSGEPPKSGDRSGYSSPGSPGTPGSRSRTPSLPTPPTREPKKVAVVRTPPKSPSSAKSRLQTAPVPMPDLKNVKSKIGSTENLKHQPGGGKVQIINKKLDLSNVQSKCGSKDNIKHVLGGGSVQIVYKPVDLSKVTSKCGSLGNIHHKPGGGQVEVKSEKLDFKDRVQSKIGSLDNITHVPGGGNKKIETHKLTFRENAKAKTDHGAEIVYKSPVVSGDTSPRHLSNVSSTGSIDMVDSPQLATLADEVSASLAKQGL

As for `O=C1CCC(N2C(=O)c3ccc(N4CCN(CC(F)(F)C5CCN(c6ccc(-c7ccc8c(c7)[nH]c7ccncc78)cn6)CC5)CC4)cc3C2=O)C(=O)N1` (stereo not drawn) [Compound 569, 5-(4-(2-(1-(5-(5H-pyrido[4,3-b]indol-7-yl)pyridin-2-yl)piperidin-4-yl)-2,2-difluoroethyl)piperazin-1-yl)-2-(2,6-dioxopiperidin-3-yl)isoindoline-1,3-dione], the remaining activity at 1 µM under setting [1] was less than 50%.

As to `O=C1CCC(N2C(=O)c3ccc(N4CCN(CC#CC5CCN(c6ncc(-c7ccc8c9cnccc9n(C(F)F)c8c7)cc6F)CC5)CC4)cc3C2=O)C(=O)N1` (stereo not drawn) [Compound 574, 5-(4-(3-(1-(5-(5-(difluoromethyl)-5H-pyrido[4,3-b]indol-7-yl)-3-fluoropyridin-2-yl)piperidin-4-yl)prop-2-yn-1-yl)piperazin-1-yl)-2-(2,6-dioxopiperidin-3-yl)isoindoline-1,3-dione], the remaining activity at 1 µM under setting [1] is less than 50%.

As to `O=C1CCC(N2C(=O)c3ccc(N4CCN(CCCN5CCOC6(CCN(c7ccc8c9cnccc9n(C(F)F)c8c7)CC6)C5)CC4)cc3C2=O)C(=O)N1` (stereo not drawn) [Compound 575, 5-(4-(3-(9-(5-(difluoromethyl)-5H-pyrido[4,3-b]indol-7-yl)-1-oxa-4,9-diazaspiro[5.5]undecan-4-yl)propyl)piperazin-1-yl)-2-(2,6-dioxopiperidin-3-yl)isoindoline-1,3-dione], the remaining activity at 1 µM under setting [1] was less than 50%.

With `O=C1CCC(N2C(=O)c3ccc(OCCC4CCN(C[C@H]5C[C@H](Oc6cc(Nc7ccc8ncccc8n7)ccn6)C5)CC4)cc3C2=O)C(=O)N1` (stereo partly drawn) [Compound 577, 5-(2-(1-(((1r,3r)-3-((4-((1,5-napthyridin-2-yl)amino)pyridin-2-yl)oxy)cyclobutyl)methyl)piperidin-4-yl)ethoxy)-2-(2,6-dioxopiperidin-3-yl)isoindoline-1,3-dione], the remaining activity at 1 µM under setting [1] is greater than 50%.

For the compound `CC(C)N(CC1CCN(c2ncc(-c3ccc4c5cnccc5n(C(F)F)c4c3)cc2F)CC1)[C@H]1C[C@H](Oc2ccc3c(c2)C(=O)N(C2CCC(=O)NC2=O)C3=O)C1` (stereo partly drawn) [Compound 581, 5-((1r,3r)-3-(((1-(5-(5-(difluoromethyl)-5H-pyrido[4,3-b]indol-7-yl)-3-fluoropyridin-2-yl)piperidin-4-yl)methyl)(isopropyl)amino)cyclobutoxy)-2-(2,6-dioxopiperidin-3-yl)isoindoline-1,3-dione], under setting [1], the remaining activity at 1 µM was less than 50%.

As to `O=C1CCC(N2C(=O)c3ccc(N4CCN(CCC5CCN(c6cc(Nc7ccc8ncccc8n7)ccn6)CC5)CC4)cc3C2=O)C(=O)N1` (stereo not drawn) [Compound 583, 2-(2,6-dioxo-3-piperidyl)-5-[4-[2-[1-[4-(1,5-naphthyridin-2-ylamino)-2-pyridyl]-4-piperidyl]ethyl]piperazin-1-yl]isoindoline-1,3-dione], the remaining activity at 1 µM under setting [1] was less than 50%.

In the case of `Cc1cc(Nc2ccc3nc(N4CCC(CCN5CCN(c6ccc7c(c6)C(=O)N(C6CCC(=O)NC6=O)C7=O)CC5)CC4)ccc3n2)ccn1` (stereo not drawn) [Compound 584, 2-(2,6-dioxopiperidin-3-yl)-5-(4-(2-(1-(6-((2-methylpyridin-4-yl)amino)-1,5-naphthyridin-2-yl)piperidin-4-yl)ethyl)piperazin-1-yl)isoindoline-1,3-dione], the remaining activity at 1 µM under setting [1] was less than 50%.

Turning to `O=C1CCC(N2C(=O)c3ccc(C#CCN4CCN(CCC5CCN(c6ccc7c8cnccc8n(C(F)F)c7c6)CC5)CC4)cc3C2=O)C(=O)N1` (stereo not drawn) [Compound 586, 5-(3-(4-(2-(1-(5-(difluoromethyl)-5H-pyrido[4,3-b]indol-7-yl)piperidin-4-yl)ethyl)piperazin-1-yl)prop-1-yn-1-yl)-2-(2,6-dioxopiperidin-3-yl)isoindoline-1,3-dione], the remaining activity at 1 µM under setting [1] was less than 50%.

As for `O=C1CCC(N2C(=O)c3ccc(N4CCN(C(=O)CC5CCN(c6ncc(-c7ccc8c9cnccc9n(C(F)F)c8c7)cc6F)CC5)CC4)cc3C2=O)C(=O)N1` (stereo not drawn) [Compound 592, 5-(4-(2-(1-(5-(5-(difluoromethyl)-5H-pyrido[4,3-b]indol-7-yl)-3-fluoropyridin-2-yl)piperidin-4-yl)acetyl)piperazin-1-yl)-2-(2,6-dioxopiperidin-3-yl)isoindoline-1,3-dione], the remaining activity at 1 µM under setting [1] is less than 50%.

Regarding `O=C1CCC(N2C(=O)c3ccc(N4CCN(CCC5CCN(C6CCN(c7ccc8c9cnccc9n(C(F)F)c8c7)CC6)CC5)CC4)cc3C2=O)C(=O)N1` (stereo not drawn) [Compound 593], the remaining activity at 1 µM under setting [1] was less than 50%.

For the compound `O=C1CCC(N2C(=O)c3cccc(N4CCN(CCC5CCN(c6ncc(-c7ccc8c9cnccc9n(C(F)F)c8c7)cc6F)CC5)CC4)c3C2=O)C(=O)N1` (stereo not drawn) [Compound 594, 4-(4-(2-(1-(5-(5-(difluoromethyl)-5H-pyrido[4,3-b]indol-7-yl)-3-fluoropyridin-2-yl)piperidin-4-yl)ethyl)piperazin-1-yl)-2-(2,6-dioxopiperidin-3-yl)isoindoline-1,3-dione], the remaining activity at 1 µM under setting [1] is less than 50%.

For `O=C1CCC(N2C(=O)c3ccc(N4CCN(CCC5CCN(c6ncc(-c7ccc8c9cc(F)cnc9n(C(F)F)c8c7)cc6F)CC5)CC4)cc3C2=O)C(=O)N1` (stereo not drawn) [Compound 597, 5-(4-(2-(1-(5-(9-(difluoromethyl)-3-fluoro-9H-pyrido[2,3-b]indol-7-yl)-3-fluoropyridin-2-yl)piperidin-4-yl)ethyl)piperazin-1-yl)-2-(2,6-dioxopiperidin-3-yl)isoindoline-1,3-dione], the remaining activity at 1 µM under setting [1] was less than 50%.

Regarding `O=C1CCC(N2C(=O)c3ccc(N4CCN(CCC5CCN(c6cc7ccn(-c8cc9cc(F)ccc9cn8)c7cn6)CC5)CC4)cc3C2=O)C(=O)N1` (stereo not drawn) [Compound 598, 2-(2,6-dioxopiperidin-3-yl)-5-(4-(2-(1-(1-(6-fluoroisoquinolin-3-yl)-1H-pyrrolo[2,3-c]pyridin-5-yl)piperidin-4-yl)ethyl)piperazin-1-yl)isoindoline-1,3-dione], the remaining activity at 1 µM under setting [1] is less than 50%.

Turning to `O=C1CCC(N2C(=O)c3ccc(N4CCN(CCC5CC6(C5)CN(c5ccc(-c7ccc8c(c7)[nH]c7ccncc78)cn5)C6)CC4)cc3C2=O)C(=O)N1` (stereo not drawn) [Compound 599, 5-(4-(2-(2-(5-(5H-pyrido[4,3-b]indol-7-yl)pyridin-2-yl)-2-azaspiro[3.3]heptan-6-yl)ethyl)piperazin-1-yl)-2-(2,6-dioxopiperidin-3-yl)isoindoline-1,3-dione], the remaining activity at 1 µM under setting [1] was less than 50%.

Take `CC1c2ccc(-c3ccc4c5cnccc5n(C(F)F)c4c3)cc2CCN1CCCCCOc1ccc2c(c1)C(=O)N(C1CCC(=O)NC1=O)C2=O` (stereo not drawn) [Compound 603, 5-((5-(6-(5-(difluoromethyl)-5H-pyrido[4,3-b]indol-7-yl)-1-methyl-3,4-dihydroisoquinolin-2(1H)-yl)pentyl)oxy)-2-(2,6-dioxopiperidin-3-yl)isoindoline-1,3-dione]: under setting [2], the remaining activity at 1 µM is greater than 50%.

Regarding `O=C1CCC(N2C(=O)c3ccc(N4CCC(CN5CCC(O[C@H]6C[C@H](Oc7ccc8c9cnccc9n(C(F)F)c8c7)C6)CC5)CC4)cc3C2=O)C(=O)N1` (stereo partly drawn) [Compound 605, 5-(4-((4-((1r,3r)-3-((5-(difluoromethyl)-5H-pyrido[4,3-b]indol-7-yl)oxy)cyclobutoxy)piperidin-1-yl)methyl)piperidin-1-yl)-2-(2,6-dioxopiperidin-3-yl)isoindoline-1,3-dione], under setting [2], the remaining activity at 1 µM was less than 50%.

On to `O=C1CCC(N2Cc3nc(N4CCN(CCC5CCN(c6ncc(-c7ccc8c9cnccc9n(C(F)F)c8c7)cc6F)CC5)CC4)ccc3C2=O)C(=O)N1` (stereo not drawn) [Compound 607, 3-(2-(4-(2-(1-(5-(5-(difluoromethyl)-5H-pyrido[4,3-b]indol-7-yl)-3-fluoropyridin-2-yl)piperidin-4-yl)ethyl)piperazin-1-yl)-5-oxo-5,7-dihydro-6H-pyrrolo[3,4-b]pyridin-6-yl)piperidine-2,6-dione], for which, under setting [2], the remaining activity at 1 µM was greater than 50%.

Regarding `O=C1CCC(N2C(=O)c3cc(F)c(N4CCN(CC5CCN(c6ncc(-c7ccc8c9cnccc9n(C(F)F)c8c7)cc6F)CC5)CC4)cc3C2=O)C(=O)N1` (stereo not drawn) [Compound 608, 5-(4-((1-(5-(5-(difluoromethyl)-5H-pyrido[4,3-b]indol-7-yl)-3-fluoropyridin-2-yl)piperidin-4-yl)methyl)piperazin-1-yl)-2-(2,6-dioxopiperidin-3-yl)-6-fluoroisoindoline-1,3-dione], the remaining activity at 1 µM under setting [2] is greater than 50%.

`CC(C)(C1CCN(c2ncc(-c3ccc4c5cnccc5n(C(F)F)c4c3)cc2F)CC1)N1CCN(c2ccc3c(c2)C(=O)N(C2CCC(=O)NC2=O)C3=O)CC1` (stereo not drawn) [Compound 609, 5-(4-(2-(1-(5-(5-(difluoromethyl)-5H-pyrido[4,3-b]indol-7-yl)-3-fluoropyridin-2-yl)piperidin-4-yl)propan-2-yl)piperazin-1-yl)-2-(2,6-dioxopiperidin-3-yl)isoindoline-1,3-dione]: the remaining activity at 1 µM under setting [2] is less than 50%.

Consider `O=C1CCC(N2C(=O)c3ccc(N4CCN(CCOCCN5CCCc6cc(-c7ccc8c9cnccc9n(C(F)F)c8c7)cc(F)c65)CC4)cc3C2=O)C(=O)N1` (stereo not drawn) [Compound 611, 5-(4-(2-(2-(6-(5-(difluoromethyl)-5H-pyrido[4,3-b]indol-7-yl)-8-fluoro-3,4-dihydroquinolin-1(2H)-yl)ethoxy)ethyl)piperazin-1-yl)-2-(2,6-dioxopiperidin-3-yl)isoindoline-1,3-dione], for which the remaining activity at 1 µM under setting [2] is less than 50%.

As to `O=C1CCC(N2C(=O)c3ccc(N4CCN(C5CC6(CCN(c7ncc(-c8ccc9c%10cnccc%10n(C(F)F)c9c8)cc7F)CC6)C5)CC4)cc3C2=O)C(=O)N1` (stereo not drawn) [Compound 613, 5-(4-(7-(5-(5-(difluoromethyl)-5H-pyrido[4,3-b]indol-7-yl)-3-fluoropyridin-2-yl)-7-azaspiro[3.5]nonan-2-yl)piperazin-1-yl)-2-(2,6-dioxopiperidin-3-yl)isoindoline-1,3-dione], the remaining activity at 1 µM under setting [2] is greater than 50%.
